Experimental findings from patent US12522601B2, “1,3,4-oxadiazole derivative compounds as histone deacetylase 6 inhibitor, and the pharmaceutical composition comprising the same” (CHONG KUN DANG PHARMACEUTICAL CORP., priority 2020, dated 2026) are described below.

Where only a bound is given, the exact number is not on record here.

One experiment deals with T1, human recombinant HDAC6 (Homo sapiens, UniProt Q9UBN7).
T1 construct: purchased Calbiochem Inc. 382180
T1 sequence (Q9UBN7 1-1215): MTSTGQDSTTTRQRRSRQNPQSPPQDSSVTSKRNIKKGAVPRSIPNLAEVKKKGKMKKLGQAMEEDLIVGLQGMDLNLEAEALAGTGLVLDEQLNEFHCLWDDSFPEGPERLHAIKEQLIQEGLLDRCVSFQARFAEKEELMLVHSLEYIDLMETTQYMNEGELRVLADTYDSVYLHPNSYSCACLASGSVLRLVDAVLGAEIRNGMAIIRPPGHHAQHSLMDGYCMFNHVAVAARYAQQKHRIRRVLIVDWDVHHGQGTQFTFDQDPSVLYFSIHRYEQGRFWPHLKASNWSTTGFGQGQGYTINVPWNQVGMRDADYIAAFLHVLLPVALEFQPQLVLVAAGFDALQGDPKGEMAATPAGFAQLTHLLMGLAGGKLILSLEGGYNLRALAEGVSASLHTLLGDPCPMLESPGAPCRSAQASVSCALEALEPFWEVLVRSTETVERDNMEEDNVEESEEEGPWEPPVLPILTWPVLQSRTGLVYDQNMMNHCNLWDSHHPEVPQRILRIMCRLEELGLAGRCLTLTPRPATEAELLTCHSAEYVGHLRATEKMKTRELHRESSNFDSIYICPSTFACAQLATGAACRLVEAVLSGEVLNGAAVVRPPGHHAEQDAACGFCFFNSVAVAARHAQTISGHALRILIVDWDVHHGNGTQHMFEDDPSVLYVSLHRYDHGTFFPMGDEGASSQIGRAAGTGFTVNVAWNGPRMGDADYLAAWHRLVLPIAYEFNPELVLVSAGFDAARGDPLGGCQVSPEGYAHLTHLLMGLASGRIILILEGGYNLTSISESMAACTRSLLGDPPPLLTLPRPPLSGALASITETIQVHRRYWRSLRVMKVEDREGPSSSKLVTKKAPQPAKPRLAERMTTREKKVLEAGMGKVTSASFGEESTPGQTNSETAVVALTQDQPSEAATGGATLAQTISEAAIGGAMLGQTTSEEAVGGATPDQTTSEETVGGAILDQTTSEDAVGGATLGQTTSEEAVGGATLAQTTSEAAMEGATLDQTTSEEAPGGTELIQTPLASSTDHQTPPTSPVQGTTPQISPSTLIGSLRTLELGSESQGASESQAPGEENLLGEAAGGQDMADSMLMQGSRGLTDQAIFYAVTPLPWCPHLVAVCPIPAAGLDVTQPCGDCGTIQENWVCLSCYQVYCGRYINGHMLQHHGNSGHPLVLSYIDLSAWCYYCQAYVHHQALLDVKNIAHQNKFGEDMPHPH
Nature of the experiment: In vitro HDAC enzyme activity inhibition assay, HDAC6 (HDAC Fluorimetric Drug Discovery Kit). The format is biochemical. Particulars: for HDAC6 Selectivity (fold): HDAC6 versus HDAC1; for IC50: human recombinant HDAC6, same protocol as the HDAC1 test. How it is done: (§1) In order to confirm the selectivity of the compounds represented by Chemical Formula I of the present invention to HDAC6 through HDAC1 and HDAC6 enzyme activity inhibition experiments, a comparison experiment was performed using the material that has already been developed as a control group.
(§2) HDAC enzyme activity was measured using the HDAC Fluorimetric Drug Discovery Kit (Enzo Life Sciences, Inc., BML-AK511, 516). For the HDAC1 enzyme activity test, human recombinant HDAC1 (BML-SE456) was used as an enzyme source and Fluor de Lys®-SIRT1 (BNL-KI177) was used as a substrate. After dispensing 5-fold diluted compounds into a 96-well plate, 0.3 μg of enzyme and 10 μM substrate were added to each well of the plate and allowed to react at 30° C. for 60 minutes. Next, Fluor de Lys® Developer II (BML-KI176) was added and reacted for 30 minutes to complete the reaction, and then the fluorescence values (Ex 360, Em 460) were measured using a multi-plate reader (Flexstation 3, Molecular Device). The HDAC6 enzymes were tested using human recombinant HDAC6 (382180) from Calbiochem Inc., according to the same protocol as the HDAC1 enzyme activity test method. With respect to the final result values, respective IC50 values were calculated using GraphPad Prism 4.0 program, and results thereof were summarized in Table 5 below.

Another experiment has as its target T2, human recombinant HDAC1 (Homo sapiens, UniProt Q13547).
T2 construct: purchased Enzo Life Sciences, Inc. BML-SE456
Nature of the experiment: In vitro HDAC enzyme activity inhibition assay, HDAC1 (HDAC Fluorimetric Drug Discovery Kit). The format is biochemical. Conditions: human recombinant HDAC1, Fluor de Lys-SIRT1 substrate 10 μM, 30° C. for 60 minutes. The protocol: as §1, §2

T2 sequence (Q13547 whole entry): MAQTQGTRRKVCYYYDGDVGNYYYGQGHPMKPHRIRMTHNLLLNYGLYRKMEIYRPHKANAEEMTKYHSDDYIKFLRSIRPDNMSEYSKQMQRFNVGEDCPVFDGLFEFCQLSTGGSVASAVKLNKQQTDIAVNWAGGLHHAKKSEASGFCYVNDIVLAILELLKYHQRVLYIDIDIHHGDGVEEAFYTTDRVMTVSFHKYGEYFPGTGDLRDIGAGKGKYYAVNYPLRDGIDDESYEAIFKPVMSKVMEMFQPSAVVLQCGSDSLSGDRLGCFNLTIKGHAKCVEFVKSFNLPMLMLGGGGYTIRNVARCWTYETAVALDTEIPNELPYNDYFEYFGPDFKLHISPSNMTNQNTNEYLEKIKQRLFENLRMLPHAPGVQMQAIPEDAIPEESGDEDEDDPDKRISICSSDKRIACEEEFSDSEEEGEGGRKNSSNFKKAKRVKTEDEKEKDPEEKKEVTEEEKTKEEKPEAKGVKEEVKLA

Take `CC(=O)N1CCN(C(=O)N(Cc2cn3ccc(-c4nnc(C(F)F)o4)cc3n2)c2cccc(F)c2)CC1` [Compound 4092, 4-acetyl-N-((7-(5-(difluoromethyl)-1,3,4-oxadiazol-2-yl)imidazo[1,2-a]pyridin-2-yl)methyl)-N-(3-fluorophenyl)piperazine-1-carboxamide]: at human recombinant HDAC6, the “HDAC6 Selectivity (fold)” value was found to be 187 fold and the IC50 came out at 267 nM. In addition, the IC50 at human recombinant HDAC1 is over 50000 nM.
The like results for `FC(F)c1nnc(-c2ccn3cc(CNc4ccc(C(F)(F)F)cc4)nc3c2)o1` [Compound 3673, N-((7-(5-(difluoromethyl)-1,3,4-oxadiazol-2-yl)imidazo[1,2-a]pyridin-2-yl)methyl)-4-(trifluoromethyl)aniline] were, in that order, 125 fold, 400 nM and over 50000 nM.
The like results for `FC(F)c1nnc(-c2ccn3cc(CNC45CC6CC(CC(C6)C4)C5)nc3c2)o1` [Compound 3677, (3s,5s,7s)-N-((7-(5-(difluoromethyl)-1,3,4-oxadiazol-2-yl)imidazo[1,2-a]pyridin-2-yl)methyl)adamantane-1-amine] were, in that order, 196 fold, 255 nM and over 50000 nM.
The like results for `O=C(C1CN(C2CCOCC2)C1)N(Cc1cn2ccc(-c3nnc(C(F)F)o3)cc2n1)c1cccc(F)c1` [Compound 4195, N-((7-(5-(difluoromethyl)-1,3,4-oxadiazol-2-yl)imidazo[1,2-a]pyridin-2-yl)methyl)-N-(3-fluorophenyl)-1-(tetrahydro-2H-pyran-4-yl) azetidine-3-carboxamide] were, in that order, 261 fold, 192 nM and over 50000 nM.
Turning to `O=C(C1CN(C(=O)C(F)(F)F)C1)N(Cc1cn2ccc(-c3nnc(C(F)F)o3)cc2n1)c1ccccc1` [Compound 4172, N-((7-(5-(difluoromethyl)-1,3,4-oxadiazol-2-yl)imidazo[1,2-a]pyridin-2-yl)methyl)-N-phenyl-1-(2,2,2-trifluoroacetyl) azetidine-3-carboxamide], at human recombinant HDAC6, the “HDAC6 Selectivity (fold)” value is 184 fold and the IC50 turned out to be 272 nM. The IC50 on human recombinant HDAC1 was over 50000 nM.
`O=C(N1CCN(C2CCOCC2)CC1)N(Cc1cn2ccc(-c3nnc(C(F)F)o3)cc2n1)c1cccc(F)c1` [Compound 4090, N-((7-(5-(difluoromethyl)-1,3,4-oxadiazol-2-yl)imidazo[1,2-a]pyridin-2-yl)methyl)-N-(3-fluorophenyl)-4-(tetrahydro-2H-pyran-4-yl)piperazine-1-carboxamide]: at human recombinant HDAC6, the “HDAC6 Selectivity (fold)” value was found to be 216 fold. Also, the IC50 was 232 nM at human recombinant HDAC6 and over 50000 nM at human recombinant HDAC1.
For the compound `CCC(=O)N1CCC(C(=O)N(Cc2cn3ccc(-c4nnc(C(F)F)o4)cc3n2)c2ccccc2)CC1` [Compound 4123, N-((7-(5-(difluoromethyl)-1,3,4-oxadiazol-2-yl)imidazo[1,2-a]pyridin-2-yl)methyl)-N-phenyl-1-propionylpiperidine-4-carboxamide], the “HDAC6 Selectivity (fold)” value on human recombinant HDAC6 came out at 163 fold. For the same compound, the IC50 was 307 nM at human recombinant HDAC6 and over 50000 nM on human recombinant HDAC1.
The like results for `Fc1ccc(NCc2cn3ccc(-c4nnc(C(F)F)o4)cc3n2)cc1Cl` [Compound 3672, 3-chloro-N-((7-(5-(difluoromethyl)-1,3,4-oxadiazol-2-yl)imidazo[1,2-a]pyridin-2-yl)methyl)-4-fluoroaniline] were, in that order, 464 fold, 108 nM and over 50000 nM.
The like results for `Fc1ccc(OCc2cn3ccc(-c4nnc(C(F)F)o4)cc3n2)cc1F` [Compound 3723, 2-(difluoromethyl)-5-(2-((3,4-difluorophenoxy)methyl)imidazo[1,2-a]pyridin-7-yl)-1,3,4-oxadiazole] were, in that order, 174 fold, 240 nM and over 50000 nM.
The like results for `CN1CCC(C(=O)N(Cc2cn3ccc(-c4nnc(C(F)F)o4)cc3n2)c2cccc(F)c2)CC1` [Compound 4137, N-((7-(5-(difluoromethyl)-1,3,4-oxadiazol-2-yl)imidazo[1,2-a]pyridin-2-yl)methyl)-N-(3-fluorophenyl)-1-methylpiperidine-4-carboxamide] were, in that order, 283 fold, 177 nM and over 50000 nM.
For the compound `O=C(N1CCN(C(=O)C(F)(F)F)CC1)N(Cc1cn2ccc(-c3nnc(C(F)F)o3)cc2n1)c1cccc(F)c1` [Compound 4096, N-((7-(5-(difluoromethyl)-1,3,4-oxadiazol-2-yl)imidazo[1,2-a]pyridin-2-yl)methyl)-N-(3-fluorophenyl)-4-(2,2,2-trifluoroacetyl)piperazine-1-carboxamide], the “HDAC6 Selectivity (fold)” value on human recombinant HDAC6 stood at 121 fold. Besides, the IC50 at human recombinant HDAC6 was 413 nM; at human recombinant HDAC1 it was over 50000 nM.
The like results for `O=C(C1CCC1)N1CCC(C(=O)N(Cc2cn3ccc(-c4nnc(C(F)F)o4)cc3n2)c2ccccc2)CC1` [Compound 4125, 1-(cyclobutanecarbonyl)-N-((7-(5-(difluoromethyl)-1,3,4-oxadiazol-2-yl)imidazo[1,2-a]pyridine-2-yl)methyl)-N-phenylpiperidine-4-carboxamide] were, in that order, 152 fold, 329 nM and over 50000 nM.
The like results for `O=C(C1CN(C2CCCCC2)C1)N(Cc1cn2ccc(-c3nnc(C(F)F)o3)cc2n1)c1ccccc1` [Compound 4164, 1-cyclohexyl-N-((7-(5-(difluoromethyl)-1,3,4-oxadiazol-2-yl)imidazo[1,2-a]pyridin-2-yl)methyl)-N-phenylazetidine-3-carboxamide] were, in that order, 147 fold, 340 nM and over 50000 nM.
Turning to `CC(C)N1CCN(C(=O)N(Cc2cn3ccc(-c4nnc(C(F)F)o4)cc3n2)c2cccc(F)c2)CC1` [Compound 4085, N-((7-(5-(difluoromethyl)-1,3,4-oxadiazol-2-yl)imidazo[1,2-a]pyridin-2-yl)methyl)-N-(3-fluorophenyl)-4-isopropylpiperazine-1-carboxamide], at human recombinant HDAC6, the “HDAC6 Selectivity (fold)” value is listed as 233 fold and the IC50 worked out at 214 nM. Further, on human recombinant HDAC1, the IC50 is over 50000 nM.
The like results for `O=C(C1CCC1)N1CCN(C(=O)N(Cc2cn3ccc(-c4nnc(C(F)F)o4)cc3n2)c2ccccc2)CC1` [Compound 4043, 4-(cyclobutanecarbonyl)-N-((7-(5-(difluoromethyl)-1,3,4-oxadiazol-2-yl)imidazo[1,2-a]pyridine-2-yl)methyl)-N-phenylpiperazine-1-carboxamide] were, in that order, 302 fold, 166 nM and over 50000 nM.
The like results for `CCC(=O)N1CCN(C(=O)N(Cc2cn3ccc(-c4nnc(C(F)F)o4)cc3n2)c2ccccc2)CC1` [Compound 4041, N-((7-(5-(difluoromethyl)-1,3,4-oxadiazol-2-yl)imidazo[1,2-a]pyridin-2-yl)methyl)-N-phenyl-4-propionylpiperazine-1-carboxamide] were, in that order, 193 fold, 259 nM and over 50000 nM.
